# ± gives the expanded uncertainty stated by the source.
# Experiments:
# [1] = xn = mol fraction of the nth substance listed; conditions: 298.15 K, 101 kPa, Liquid; for viscosity: Capillary tube (Ostwald / Ubbelohde) method; for mass density: Vibrating tube method
# [2] = 298.15 K, 101 kPa, Liquid; for viscosity: Capillary tube (Ostwald / Ubbelohde) method; for mass density: Vibrating tube method
smiles,measurement,setting,value
CCCCCCn1cc[n+](C)c1.F[B-](F)(F)F [1-hexyl-3-methylimidazolium tetrafluoroborate] + CCC(C)=O,viscosity,[1]; x1 = 0.0492,0.6 ± 0.014 mPa·s
same,viscosity,[1]; x1 = 0.0988,0.914 ± 0.022 mPa·s
same,viscosity,[1]; x1 = 0.2011,2.059 ± 0.047 mPa·s
same,viscosity,[1]; x1 = 0.2989,4.063 ± 0.092 mPa·s
same,viscosity,[1]; x1 = 0.3482,5.578 ± 0.13 mPa·s
same,viscosity,[1]; x1 = 0.3972,7.507 ± 0.17 mPa·s
same,viscosity,[1]; x1 = 0.4605,11.08 ± 0.25 mPa·s
same,viscosity,[1]; x1 = 0.4981,13.67 ± 0.32 mPa·s
same,viscosity,[1]; x1 = 0.55,18.57 ± 0.43 mPa·s
same,viscosity,[1]; x1 = 0.6057,24.46 ± 0.59 mPa·s
same,viscosity,[1]; x1 = 0.7054,43.38 ± 1.1 mPa·s
same,viscosity,[1]; x1 = 0.7955,69.4 ± 1.8 mPa·s
same,viscosity,[1]; x1 = 0.8931,110.34 ± 3.3 mPa·s
same,viscosity,[1]; x1 = 1,195.37 ± 7.2 mPa·s
same,mass density,[1]; x1 = 0.0492,845.71 ± 0.94 kg/m3
same,mass density,[1]; x1 = 0.0988,889.12 ± 0.71 kg/m3
same,mass density,[1]; x1 = 0.2011,946.15 ± 0.61 kg/m3
same,mass density,[1]; x1 = 0.2989,991.57 ± 0.58 kg/m3
same,mass density,[1]; x1 = 0.3482,1010.53 ± 0.56 kg/m3
same,mass density,[1]; x1 = 0.3972,1027.28 ± 0.57 kg/m3
same,mass density,[1]; x1 = 0.4605,1046.8 ± 0.61 kg/m3
same,mass density,[1]; x1 = 0.4981,1057.05 ± 0.63 kg/m3
same,mass density,[1]; x1 = 0.55,1070.3 ± 0.67 kg/m3
same,mass density,[1]; x1 = 0.6057,1082.75 ± 0.71 kg/m3
same,mass density,[1]; x1 = 0.7054,1102.84 ± 0.81 kg/m3
same,mass density,[1]; x1 = 0.7955,1119.38 ± 0.91 kg/m3
same,mass density,[1]; x1 = 0.8931,1132.37 ± 1 kg/m3
same,mass density,[1]; x1 = 1,1146.7 ± 1.2 kg/m3
CCCCCCn1cc[n+](C)c1.F[B-](F)(F)F [1-hexyl-3-methylimidazolium tetrafluoroborate] + CCCCN,viscosity,[1]; x1 = 1,195.37 ± 7.2 mPa·s
same,mass density,[1]; x1 = 1,1146.7 ± 1.2 kg/m3
CCCCCCn1cc[n+](C)c1.F[B-](F)(F)F [1-hexyl-3-methylimidazolium tetrafluoroborate] + CCOC(C)=O,viscosity,[1]; x1 = 0.0498,0.738 ± 0.018 mPa·s
same,viscosity,[1]; x1 = 0.1,1.188 ± 0.029 mPa·s
same,viscosity,[1]; x1 = 0.2027,2.674 ± 0.061 mPa·s
same,viscosity,[1]; x1 = 0.302,5.221 ± 0.12 mPa·s
same,viscosity,[1]; x1 = 0.3475,6.846 ± 0.16 mPa·s
same,viscosity,[1]; x1 = 0.3983,9.328 ± 0.21 mPa·s
same,viscosity,[1]; x1 = 0.4488,12.31 ± 0.28 mPa·s
same,viscosity,[1]; x1 = 0.501,16.47 ± 0.38 mPa·s
same,viscosity,[1]; x1 = 0.5487,21.49 ± 0.51 mPa·s
same,viscosity,[1]; x1 = 0.6022,28.48 ± 0.68 mPa·s
same,viscosity,[1]; x1 = 0.7075,48.11 ± 1.2 mPa·s
same,viscosity,[1]; x1 = 0.8066,80.43 ± 2.2 mPa·s
same,viscosity,[1]; x1 = 0.8908,119.88 ± 3.7 mPa·s
same,viscosity,[1]; x1 = 1,195.37 ± 7.2 mPa·s
same,mass density,[1]; x1 = 0.0498,925.56 ± 0.64 kg/m3
same,mass density,[1]; x1 = 0.1,952.69 ± 0.55 kg/m3
same,mass density,[1]; x1 = 0.2027,997.78 ± 0.52 kg/m3
same,mass density,[1]; x1 = 0.302,1031.52 ± 0.53 kg/m3
same,mass density,[1]; x1 = 0.3475,1044.35 ± 0.53 kg/m3
same,mass density,[1]; x1 = 0.3983,1057.37 ± 0.56 kg/m3
same,mass density,[1]; x1 = 0.4488,1068.89 ± 0.59 kg/m3
same,mass density,[1]; x1 = 0.501,1079.8 ± 0.63 kg/m3
same,mass density,[1]; x1 = 0.5487,1088.62 ± 0.67 kg/m3
same,mass density,[1]; x1 = 0.6022,1097.8 ± 0.72 kg/m3
same,mass density,[1]; x1 = 0.7075,1113.73 ± 0.82 kg/m3
same,mass density,[1]; x1 = 0.8066,1126.46 ± 0.93 kg/m3
same,mass density,[1]; x1 = 0.8908,1135.69 ± 1 kg/m3
same,mass density,[1]; x1 = 1,1146.7 ± 1.2 kg/m3
CCC(C)=O [butanone],viscosity,[2],0.388 ± 0.008 mPa·s
same,mass density,[2],799.87 ± 0.25 kg/m3
CCC(C)=O [butanone] + CCCCCCn1cc[n+](C)c1.F[B-](F)(F)F,viscosity,[1]; x2 = 0,0.388 ± 0.008 mPa·s
same,mass density,[1]; x2 = 0,799.87 ± 0.25 kg/m3
CCOC(C)=O [ethyl acetate],viscosity,[2],0.437 ± 0.009 mPa·s
same,mass density,[2],894.48 ± 0.25 kg/m3
CCOC(C)=O [ethyl acetate] + CCCCCCn1cc[n+](C)c1.F[B-](F)(F)F,viscosity,[1]; x2 = 0,0.437 ± 0.009 mPa·s
same,mass density,[1]; x2 = 0,894.48 ± 0.25 kg/m3
C1CCOC1 [tetrahydrofuran],viscosity,[2],0.475 ± 0.01 mPa·s
same,mass density,[2],882.13 ± 0.16 kg/m3
C1CCOC1 [tetrahydrofuran] + CCCCCCn1cc[n+](C)c1.F[B-](F)(F)F,viscosity,[1]; x2 = 0,0.475 ± 0.01 mPa·s
same,mass density,[1]; x2 = 0,882.13 ± 0.16 kg/m3
